Here are results for five compounds from patent US4335249A, “Herbicidal diphenyl ethers, sulfides, sulfoxides and sulfones” (Rohm and Haas Company, priority 1976, dated 1982).

Common to all, as to format: in vivo
Experiment [1] deals with cocklebur (Xanthium pensylvanicum). The experiment in a line: Preemergence herbicidal activity, cocklebur. As to conditions: Xanthium strumarium, pre-emergence, 336 h; for pest or weed control at 8966.8 g/ha: 8 lb/A; for pest or weed control at 2241.7 g/ha: 2 lb/A. An outline of the steps: (§1)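 For postemergence testing, seedlings grow two weeks in soil flats before spraying; for preemergence testing, flats are sprayed just after sowing. Application uses acetone stock diluted in water, 50 gal/acre carrier volume, stated lb/A rate. Control recorded as mean percent killed roughly two weeks later.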

The test system of experiment [2] is marigold (Tagetes spp.). Description: Preemergence herbicidal activity, marigold. As to conditions: pre-emergence, 336 h; for pest or weed control at 8966.8 g/ha: 8 lb/A; for pest or weed control at 2241.7 g/ha: 2 lb/A. An outline of the steps:
as §1

The subject of experiment [3] is morningglory (Ipomoca spp.). Description: Preemergence herbicidal activity, morningglory. To be noted: Ipomoea, pre-emergence, 336 h; for pest or weed control at 8966.8 g/ha: 8 lb/A; for pest or weed control at 2241.7 g/ha: 2 lb/A. An outline of the steps: as §1
The test system of experiment [4] is tomato (Lycopersicon esculentum). The experiment in a line: Preemergence herbicidal activity, tomato. To be noted: Solanum lycopersicum, pre-emergence, 336 h, Pre; for pest or weed control at 8966.8 g/ha: 8 lb/A; for pest or weed control at 2241.7 g/ha: 2 lb/A. An outline of the steps: as §1
Experiment [5] has as its system velvetleaf (Abutilon theophrasti). The experiment in a line: Preemergence herbicidal activity, velvetleaf. To be noted: Abutilon theophrasti, pre-emergence, 336 h, Pre; for pest or weed control at 8966.8 g/ha: 8 lb/A; for pest or weed control at 2241.7 g/ha: 2 lb/A. An outline of the steps: as §1
The subject of experiment [6] is barnyardgrass (Echinochloa crusgalli). The experiment in a line: Preemergence herbicidal activity, barnyardgrass. To be noted: Echinochloa crus-galli, pre-emergence, 336 h, Pre; for pest or weed control at 8966.8 g/ha: 8 lb/A; for pest or weed control at 2241.7 g/ha: 2 lb/A. An outline of the steps: (§2)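 Control of the weed species is the read-out, following spray application at a given rate in lb/A. Flats of seeded soil received treatment either directly upon planting or, for postemergence, two weeks after seedlings emerged. Spray carrier was aqueous acetone at 50 gallons per acre equivalent.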

In experiment [7] the test system is downybrome (Bromus tectorum). Description: Preemergence herbicidal activity, downybrome. To be noted: Bromus tectorum, pre-emergence, 336 h, Pre; for pest or weed control at 8966.8 g/ha: 8 lb/A; for pest or weed control at 2241.7 g/ha: 2 lb/A. An outline of the steps:
as §1

In experiment [8] the test system is foxtail (Setaria spp.). The experiment in a line: Preemergence herbicidal activity, foxtail. To be noted: Setaria, pre-emergence, 336 h, Pre; for pest or weed control at 8966.8 g/ha: 8 lb/A; for pest or weed control at 2241.7 g/ha: 2 lb/A. An outline of the steps:
as §1

The subject of experiment [9] is yellow nutsedge (Cyperus esculentus). Description: Preemergence herbicidal activity, yellow nutsedge. As to conditions: Cyperus, pre-emergence, 336 h; for pest or weed control at 8966.8 g/ha: 8 lb/A; for pest or weed control at 2241.7 g/ha: 2 lb/A. An outline of the steps: as §1
Experiment [10] concerns wild oats (Avena fatua). The experiment in a line: Preemergence herbicidal activity, wild oats. As to conditions: Avena fatua, pre-emergence, 336 h, Pre, read-out: % control, Wild oat; for pest or weed control at 8966.8 g/ha: 8 lb/A; for pest or weed control at 2241.7 g/ha: 2 lb/A. An outline of the steps: as §1
In experiment [11] the test system is cocklebur (Xanthium pensylvanicum). The experiment in a line: Postemergence herbicidal activity, cocklebur. As to conditions: Xanthium strumarium, post-emergence, 336 h; for pest or weed control at 4483.4 g/ha: 4 lb/A; for pest or weed control at 2241.7 g/ha: 2 lb/A. An outline of the steps:
as §1

The subject of experiment [12] is marigold (Tagetes spp.). The experiment in a line: Postemergence herbicidal activity, marigold. As to conditions: post-emergence, 336 h; for pest or weed control at 4483.4 g/ha: 4 lb/A; for pest or weed control at 2241.7 g/ha: 2 lb/A. An outline of the steps: as §1
The test system of experiment [13] is morningglory (Ipomoca spp.). The experiment in a line: Postemergence herbicidal activity, morningglory. As to conditions: Ipomoea, post-emergence, 336 h; for pest or weed control at 4483.4 g/ha: 4 lb/A; for pest or weed control at 2241.7 g/ha: 2 lb/A. An outline of the steps:
as §1

In experiment [14] the test system is tomato (Lycopersicon esculentum). The experiment in a line: Postemergence herbicidal activity, tomato. As to conditions: Solanum lycopersicum, post-emergence, 336 h, Post; for pest or weed control at 4483.4 g/ha: 4 lb/A; for pest or weed control at 2241.7 g/ha: 2 lb/A. An outline of the steps: as §1
The test system of experiment [15] is velvetleaf (Abutilon theophrasti). Description: Postemergence herbicidal activity, velvetleaf. To be noted: Abutilon theophrasti, post-emergence, 336 h; for pest or weed control at 4483.4 g/ha: 4 lb/A; for pest or weed control at 2241.7 g/ha: 2 lb/A. An outline of the steps: as §2
For experiment [16], the system named is barnyardgrass (Echinochloa crusgalli). The experiment in a line: Postemergence herbicidal activity, barnyardgrass. To be noted: Echinochloa crus-galli, post-emergence, 336 h, Post; for pest or weed control at 4483.4 g/ha: 4 lb/A; for pest or weed control at 2241.7 g/ha: 2 lb/A. An outline of the steps:
as §2

For experiment [17], the system named is downybrome (Bromus tectorum). Description: Postemergence herbicidal activity, downybrome. To be noted: Bromus tectorum, post-emergence, 336 h, Post; for pest or weed control at 4483.4 g/ha: 4 lb/A; for pest or weed control at 2241.7 g/ha: 2 lb/A. An outline of the steps: as §1
Experiment [18] has as its system foxtail (Setaria spp.). Description: Postemergence herbicidal activity, foxtail. As to conditions: Setaria, post-emergence, 336 h, Post; for pest or weed control at 4483.4 g/ha: 4 lb/A; for pest or weed control at 2241.7 g/ha: 2 lb/A. An outline of the steps: as §1
In experiment [19] the test system is yellow nutsedge (Cyperus esculentus). Description: Postemergence herbicidal activity, yellow nutsedge. To be noted: Cyperus, post-emergence, 336 h; for pest or weed control at 4483.4 g/ha: 4 lb/A; for pest or weed control at 2241.7 g/ha: 2 lb/A. An outline of the steps: as §1
In experiment [20] the test system is wild oats (Avena fatua). The experiment in a line: Postemergence herbicidal activity, wild oats. To be noted: Avena fatua, post-emergence, 336 h, Post, read-out: % control, Wild oat; for pest or weed control at 4483.4 g/ha: 4 lb/A; for pest or weed control at 2241.7 g/ha: 2 lb/A. An outline of the steps: as §1

Take `CCOC(=O)C(C)Oc1ccc(Sc2cccc(C(F)(F)F)c2)cc1` (stereo not shown) [Example 45, Ethyl 2-[4-(3-trifluoromethylphenylthio)phenoxy] propionate]: the pest or weed control at 8966.8 g/ha (in [1]; with marigold (Tagetes spp.) [2]; in experiment [3]; in experiment [4]; in experiment [5]; in experiment [6]) was 0% in each case. Further, the pest or weed control at 8966.8 g/ha (in [7]; with foxtail (Setaria spp.) [8]; in experiment [9]; in the experiment with wild oats (Avena fatua) [10]) was 0% throughout. For the same compound, the pest or weed control at 4483.4 g/ha in experiment [11] worked out at 0%; in the experiment on marigold (Tagetes spp.) [12] it was 0%; in experiment [13] it was 0%; in experiment [14], 80%; in experiment [15] it was 0%; in experiment [16], 20%. In addition, the pest or weed control at 4483.4 g/ha in experiment [17] came to 20%; in the experiment on foxtail (Setaria spp.) [18] it was 30%; in experiment [19], 0%; in the experiment with wild oats (Avena fatua) [20], 20%.
`CCOC(=O)C(C)Oc1ccc(Sc2ccccc2C(F)(F)F)cc1` (stereo not shown) [Example 44, ethyl 2-(4-(2-trifluoromethylphenylthio)phenoxy) propionate]: the pest or weed control at 8966.8 g/ha was 0% in [1]; 0% with marigold (Tagetes spp.) [2]; 0% in experiment [3]; 0% in experiment [4]; 30% in [5]; 80% in experiment [6]. Further, the pest or weed control at 8966.8 g/ha in experiment [7] was determined as 60%; in the experiment with foxtail (Setaria spp.) [8], 0%; in [9], 0%; in the experiment with wild oats (Avena fatua) [10] it was 0%. The pest or weed control at 4483.4 g/ha in experiment [11] came out at 0%; with marigold (Tagetes spp.) [12], 0%; in experiment [13] it was 0%; in [14], 0%; in [15] it was 20%; in experiment [16], 0%. Further, the pest or weed control at 4483.4 g/ha worked out at 0% in experiment [17], 20% with foxtail (Setaria spp.) [18], 0% in experiment [19] and 0% in the experiment on wild oats (Avena fatua) [20].
As to `CCN(CC)C(=O)C(C)Oc1ccc(Oc2ccc(C(F)(F)F)cc2Cl)cc1` (stereo not shown) [Example 5], the pest or weed control at 2241.7 g/ha was 0% in [1]; 0% in the experiment with marigold (Tagetes spp.) [2]; 0% in experiment [3]; 0% in experiment [4]; 0% in [5]; 60% in experiment [6]. For the same compound, the pest or weed control at 2241.7 g/ha in experiment [7] came to 0%; in the experiment with foxtail (Setaria spp.) [8] it was 99%; in experiment [9] it was 0%; in the experiment with wild oats (Avena fatua) [10] it was 0%; in [11], 0%; in the experiment with marigold (Tagetes spp.) [12], 0%. Further, the pest or weed control at 2241.7 g/ha in [13] stood at 20%; in [14], 80%; in experiment [15], 20%; in experiment [16], 20%; in [17], 30%; in the experiment with foxtail (Setaria spp.) [18], 90%. Besides, the results for the pest or weed control at 2241.7 g/ha (in experiment [19]; with wild oats (Avena fatua) [20]) were 0% and 20%, respectively.
For `CCOC(=O)C(C)Oc1ccc([S+]([O-])c2ccc(C(F)(F)F)cc2)cc1` (stereo not shown) [Example 51], the pest or weed control at 4483.4 g/ha (in experiment [1] (4 lb/A); with marigold (Tagetes spp.) [2] (4 lb/A); in [3] (4 lb/A); in experiment [4] (4 lb/A); in [5] (4 lb/A); in experiment [6] (4 lb/A)) was 0% throughout. Besides, the pest or weed control at 4483.4 g/ha (in experiment [7] (4 lb/A); in the experiment on foxtail (Setaria spp.) [8] (4 lb/A); in experiment [9] (4 lb/A); in the experiment with wild oats (Avena fatua) [10] (4 lb/A); in experiment [11]; with marigold (Tagetes spp.) [12]) was 0% in each case. Moreover, the pest or weed control at 4483.4 g/ha in experiment [13] is 0%; in experiment [14], 0%; in [15] it was 0%; in [16], 20%; in experiment [17] it was 0%; with foxtail (Setaria spp.) [18] it was 0%. Also, the pest or weed control at 4483.4 g/ha in experiment [19] is 0%; in the experiment with wild oats (Avena fatua) [20], 20%.
Consider `CCNC(=O)C(C)Oc1ccc(Oc2ccc(C(F)(F)F)cc2Cl)cc1` (stereo not shown) [Example 21], for which the pest or weed control at 2241.7 g/ha is 0% in [1]; 0% with marigold (Tagetes spp.) [2]; 0% in [3]; 0% in [4]; 0% in [5]; 100% in experiment [6]. Besides, the pest or weed control at 2241.7 g/ha in experiment [7] was 90%; in the experiment on foxtail (Setaria spp.) [8], 100%; in experiment [9], 0%; in the experiment with wild oats (Avena fatua) [10], 40%; in experiment [11], 0%; in the experiment on marigold (Tagetes spp.) [12] it was 0%. In addition, the pest or weed control at 2241.7 g/ha in experiment [13] amounted to 0%; in experiment [14], 0%; in [15], 0%; in experiment [16], 100%; in experiment [17], 30%; in the experiment on foxtail (Setaria spp.) [18], 100%. For the same compound, the pest or weed control at 2241.7 g/ha turned out to be 0% in experiment [19] and 99% in the experiment on wild oats (Avena fatua) [20].
